Key:
[1] = test system: VM precursor cultures; test: Real-time RT-PCR analysis of VM precursor cultures; type: cell-based, rat
Protocol: Briefly, ventral mesencephalic tissues were dissected from E14.5 Sprague-Dawley (SD) rats, and then dissociated enzymatically (0.1% trypsin) and mechanically. Cells were seeded into 24-well (1×10^5/cm^2) culture plates pre-coated with 20 μg/mL poly-D-lysine (Sigma-Aldrich), and were maintained in 0.5 mL/well of minimum essential medium (MEM) supplemented with 10% fetal bovine serum (FBS), 10% horse serum (HS), 1 g/L glucose, 2 mM L-glutamine, 1 mM sodium pyruvate, 100 μM nonessential amino acids, 100 U/mL penicillin, and 100 μg/mL streptomycin (all purchased from Invitrogen). Cultures were maintained at 37° C. in a humidified atmosphere of 5% CO2 and 95% air. For DA neuron differentiation, VM precursor cultures, four hours after seeding, were switched to Dulbecco's Modified Eagle's Medium (DMEM)/Ham's F12 (1:1) containing N2 supplement (Invitrogen, Carlsbad, Calif.), penicillin and streptomycin. Immediately following the switch to DMEM/F12 medium, VM precursor cells were treated with various concentration of rat UCN (from Sigma-Aldrich, St. Louis, Mo.) for the indicated periods. For neutralization of endogenous UCN bioactivity, anti-UCN antibody (15 μg/mL) (Santa Cruz Biotechnology, Santa Cruz, Calif.) was added to the VM precursor cultures.
(§1) Total RNA was extracted from VM tissues or cultured VM precursors with TRIzol® reagent (Invitrogen). One-step real-time RT-PCR analysis was performed to determine the expression of genes (Power SYBR® Green RNA-to-CT™ 1-step kit, Applied Biosystems, Foster City, Calif.). Threshold cycle (CO value for each test gene was normalized to the Ct value for the β-actin control from the same RNA preparations. The ratio of transcription of each gene was calculated as 2^−(ΔCt), where ΔCt is the difference Cr (test gene)−Ct (β-actin). The primers used herein are listed in Table 1.

[2] = test system: VM precursor cultures; test: DA uptake assay in VM precursor cultures; type: cell-based, rat; settings: 1 μM UCN, 4 days
Protocol: (§2) For DA uptake assay, cells were washed twice with warm Krebs-Ringer buffer (16 mM sodium phosphate, 119 mM NaCl, 4.7 mM KCl, 1.8 mM CaCl2, 1.2 mM MgSO4, 1.3 mM EDTA and 5.6 mM glucose, pH 7.4), and then incubated with 1 μM [^3H]-dopamine(DA)(60 Ci/mmol, PerkinElmer) in Krebs-Ringer buffer at 37° C. for 20 min. After washing with ice-cold Krebs-Ringer buffer, cells were collected in 1 N NaOH and radioactivity was counted with a liquid scintillation counter. Non-specific uptake was determined in parallel wells that received both the tritiated tracer and 10 μM mazindol. The specific [^3H] DA were calculated by subtracting the amount of radioactivity obtained in the presence of mazindol from that obtained in the absence of mazindol.

[3] = test system: Nurr1-transduced cortical NPCs; test: Real-time RT-PCR of DA phenotype genes in Nurr1-transduced cortical NPCs; type: cell-based, rat; settings: 0.5 μM UCN, 3 days
Protocol: TH promoter assay or lenti-virial transductions were carried out at 60%˜70% cell confluences (usually for 3 days) as described below. Cell differentiation was induced for 3 to 5 days by switching to mitogens-free DMEM/F12/N2 medium in the presence of 0.5 μM UCN. Differentiation medium was changed every other day.
(§3) For lenti-viral transduction, E13 cortical NPCs were incubated with lenti-viruses (25 multiplicity of infection) expressing Nurr1 or GFP containing poly-brene (hexadimethrine bromide, 1 μg/mL, Sigma-Aldrich) for 24 hours. After 1 day of further cell expansion in the presence of the mitogens, cells were induced to differentiate.
as §1

[4] = test system: Nurr1-transduced cortical NPCs; test: DA uptake assay in Nurr1-transduced cortical NPCs; type: cell-based, rat; settings: 0.5 μM UCN, 4 days
Protocol: as §3, §2

[5] = test system: midbrain explants; test: Midbrain explant cultures, TH+ cell numbers; type: cell-based, rat; settings: UCN, 3 days
Protocol: Midbrain explants were dissected from E13.5 embryos by the method known by a person skilled in the art, for example as the protocol described by Baizabal and Covarrubias (2009) and performed with some modifications.
The dorsal midline of the explants was cut and the tissue was placed on porous (0.4 μm) transparent membrane inserts (25-mm in diameter, Nunc, Roskilde, Denmark) with the ventricular surface facing up. Inserts were then placed into six-well culture plates. Each well contained 1.5 mL of MEM medium supplemented with 10% FBS, 100 U/mL penicillin, and 100 μg/mL streptomycin. Explants were incubated at 37° C. with 5% CO2 for 4 hours, after which the explants were incubated in a serum-free DMEM/F12/N2 medium with or without UCN for 3 days. Midbrain explants were then fixed with 4% paraformaldehyde and immuno-histochemical analysis was performed.

[6] = test system: rat TH promoter; test: ChIP at the TH promoter with chromatin from E15.5 VM tissue of treated embryos; type: in vivo; settings: 10 μg/kg UCN i.p. every 24 h for 3 days
Protocol: VM precursor cultures were treated with 1 μM UCN for about 1 to 2 days. VM cells for ChIP from rat embryos, the pregnant rats on day 12.5 of gestation were intra-peritoneally injected with saline as control or 10 μg/kg UCN as treatment every 24 h for 3 days before sacrifice. The ventral mesencephalon from E15.5 embryos was dissected. Cells were cross-linked with 1% formaldehyde, and stored at −80° C. before use.
Chromatin immuno-precipitation (ChIP) assays were performed using SimpleChIP® Enzymatic Chromatin IP kit (Cell Signaling Technology, Beverly, Mass.) by the instruction of the kit. Briefly, cross-linked chromatin in the cells was enzymatic digested to generate fragments with a length of approximately 150-900 bp (1 to 5 nucleosomes). The chromatin was subjected to immuno-precipitation using the following antibodies: anti-Nurr1 (Santa Cruz), anti-acetyl histone H3 (Ac-H3), anti-HDAC1, anti-CoREST (all from Upstate Biotechnology), anti-MeCP2 (Chemicon,), anti-Foxa2 (Cell signaling Technology), anti-Pitx3, and IgG (both from Abcam). Immuno-precipitated DNA fragments were collected by protein G magnetic beads. DNA/protein complexes were eluted from the beads and reverse cross-linked at 65° C. for 2 h in the presence of proteinase K. Purified DNA were subjected to real-time PCR using primers specific to rat TH promoter loci (referring to Table 2). […]

[7] = test system: VM precursor cultures; test: Real-time RT-PCR analysis of VM precursor cultures; type: cell-based, rat; settings: 1.25 mM SB, 3 days

Row | Compound | L-aromatic amino acid decarboxylase (AADC) mRNA ([1]; 1 μM UCN, 4 days) | dopamine transporter (DAT) mRNA ([1]; 1 μM UCN, 4 days) | Foxa2 mRNA expression ([1]; UCN) | Nurr1 mRNA expression ([1]; UCN) | Pitx3 mRNA expression ([1]; UCN) | TH mRNA expression ([1]; UCN vs control medium) | mRNA expression specific for GABAergic neurons (GAD67) ([1]; UCN vs control medium) | mRNA expression specific for glutamatergic neurons (VGULT1) ([1]; UCN vs control medium) | mRNA expression specific for serotonergic neurons (SERT) ([1]; UCN vs control medium) | DAT-mediated specific DA uptake [2] | DAT gene expression [3] | TH gene expression [3] | VMAT2 gene expression [3] | DA neuronal function as assessed by DA uptake [4] | number of TH+ cells in midbrain explants [5] | Nurr1 binding to the TH promoter regions (NB2, NB3 and repeated CpGs) [6] | histone H3 acetylation in TH promoter regions [6] | TH mRNA expression [7]
1 | Urocortin [UCN] | trends were found for increased | trends were found for increased | upregulated | upregulated | upregulated | significantly elevated | no effect | no effect | no effect | significantly enhanced | increased gene expression | increased gene expression | increased gene expression | increased DA neuronal function | increases | more abundant | significantly increased | 
2 | CCCC(=O)[O-].[Na+] [SB, sodium butyrate, reference compound] |  |  |  |  |  |  |  |  |  |  |  |  |  |  |  |  |  | markedly upregulated
